According to US12465609B2, “Methods of treating patients suffering from a disease condition or disorder that is associated with an increased glutamate level” (veriNOS operations GmbH, priority 2022, dated 2025):

Columns and labels:
[1] = tested on: extracellular brain lactate level; assay: Brain microdialysis, extracellular cerebral lactate levels in TBI patients; type: in vivo, human
Description: (§1) To monitor the metabolic condition of the patients, extracellular brain glutamate and lactate levels were measured. In more detail, the extracellular intracerebral glutamate and lactate levels measured here is the glutamate or lactate level in brain extracellular fluid (ECF). […] The measurements of the glutamate and lactate levels was carried out using established brain microdialysis (MD) methodology as described, for example, by Chamoun et al, example. Role of extracellular glutamate measured by cerebral microdialysis in severe traumatic brain injury. J Neurosurg. 2010 September; 113(3): 564-570.
(§2) The microdialysis (MD) equipment was obtained from M Dialysis AB, Stockholm, Sweden, see www.mdialysis.com. The following equipment was used. • Cerebral MD catheters: CMA 70 • CMA 70 bolt catheter • CMA 71 high cut-off cerebral catheter • Pumps: CMA106=fixed flow rate, CMA107=flexible flow rate • Perfusion solution: Cerebral: Perfusion fluid CNS • Analyzers: CMA 600, ISCUS, ISCUSflex Time Point of MD Catheter Insertion • Aim: Obtain stable baseline values before infusing study drug • Ideal: By 14 hours after TBI or 4 hours before study drug infusion to allow for tissue adaptation, usually lasting 1-4 hours • Compromise: As soon as possible, within 4 hours after beginning study drug infusion Site of Cerebral MD Catheter Insertion • Aim: Monitor metabolic changes close to structural damage visible on routine CT scan • Contusion: Close to the contusion • Mixed lesions: Predominantly injured hemisphere • With bolt system: Right or left frontal lobe • Without bolt system: Right or left frontal/temporal/parietal area • If possible cerebral MD catheter should be placed ipsilateral to the ICP probe • Special care should be taken to avoid inducing injury to pre- and postcentral cortex • The position of the MD probe and the position of the ICP probe in the eCRF should be indicated.
(§3) The cerebral glutamate and lactate levels were recorded every 1 h up to 5 days after the start of the infusion. Absolute values were be summarized per treatment group and for each time point by means of descriptive statistics. The 95% confidence intervals for the mean were calculated (normal approximation).
(§4) For the analysis of the metabolic state, it was considered that under normal (physiological) conditions glutamate is maintained at low levels (micromolar) in the extracellular space (<2 μmol/L) and in plasma (50-100 μmol/L) to avoid excessive glutamate receptor activation. Within the different intracellular compartments glutamate is present in higher amounts (5-15 millimolar). In brain microdialysis, glutamate levels exceeding 10 μmol/L are considered elevated, higher glutamate levels are associated with worse outcome. In addition to the absolute levels, dynamic changes are also important in interpreting underlying pathology. In brain microdialysis and blood, lactate levels exceeding 2.5 millimol/L are considered pathologically elevated, reflecting insufficient metabolic/energetic stability which is further aggravated by insufficient oxygen supply.

[2] = Safety and adverse event analyses, NOSTRA III; type: in vivo
Description: Safety analyses was performed using standard descriptive methods.
The total number of treatment-emergent adverse events (TEAE) and the total number of patients with TEAEs, the total number of TEAEs related to the study drug (certain, probable, possible), the total number of patients with TEAEs related to the study drug, the total number of TEAEs and the total number of patients with serious TEAEs, the total number of patients with TEAEs leading to discontinuation of study treatment and the total number of patients with TEAEs leading to death were summarised by treatment arm.

[3] = tested on: extracellular brain glutamate level; assay: Brain microdialysis, extracellular cerebral glutamate levels in TBI patients; type: in vivo, human
Description: as §1, §2, §3, §4

For C[C@H](O)[C@H](O)C1CNc2nc(N)nc(N)c2N1 (mixture of isomers) [Ronopterin, 4-Amino-(6R,S)-5,6,7,8-tetrahydro-L-biopterin], the “extracellular cerebral lactate levels” value ([1]; 18 to 39 years, all times to infusion, patients reaching <2.5 millimol/L (FIG. 7A)) was “lower brain lactate levels compared to the placebo group”, the “extracellular cerebral lactate levels” value ([1]; 18 to 39 years, infusion >12 hours, a number of patients <2.5 millimol/L (FIG. 8C)) was “lower brain lactate levels than the placebo group” and the “extracellular cerebral lactate levels” value ([1]; 18 to 39 years, infusion ≤12 hours, a number of patients <2.5 millimol/L (FIG. 8A)) was “lower brain lactate levels than the placebo group”. The “extracellular cerebral lactate levels” value ([1]; 40 to 60 years, all times to infusion, all patients, higher than placebo (FIG. 7C)) was no less than 2.5 millimol/L, the “extracellular cerebral lactate levels” value ([1]; 40 to 60 years, infusion ≤12 hours, all patients, higher than placebo (FIG. 9A)) was no less than 2.5 millimol/L and the “extracellular brain lactate levels” value ([1]; within 120 hours after administration, stayed below threshold or only slightly elevated) was less than 2.5 millimol/L. For the same compound, the “number of renal AEs” value ([2]; Ronopterin:placebo 11:3) was 11, the “tolerability of study treatment” value ([2]; no significant new safety findings) was “well-tolerated” and the “proportion of patients with ICP increased (AE)” value ([2]; placebo 11.7%) was 23.9%. For the same compound, the “number of patients with ICP increased (AE)” value ([2]; placebo 13) was 27 patients, the “number of adverse events (AEs) and serious adverse events (SAEs) compared to the placebo groups” value ([2]; related AE/SAEs low and comparable) was “slightly higher number” and the “extracellular cerebral glutamate level” value ([3]; 18 to 39 years, infusion >12 hours after TBI, majority of patients, essentially the same as placebo (FIG. 5E)) was less than 10 µmol/L. For the same compound, the “extracellular cerebral glutamate level” value ([3]; 18 to 39 years, infusion ≤12 h after TBI, all patients (FIG. 5B)) was less than 10 µmol/L, the “extracellular cerebral glutamate level” value ([3]; 40 to 60 years, infusion >12 hours after TBI, majority of the patients (FIG. 6B)) was less than 10 µmol/L and the “extracellular cerebral glutamate level” value ([3]; 40 to 60 years, infusion ≤12 h after TBI, no placebo group, not all patients <10 μmol/L (FIG. 6A)) was “partially lowered brain glutamate levels”. For the same compound, the “extracellular brain glutamate levels after infusion” value ([3]; TBI patients, within 12 hours after start of the administration) was “less than 10 μmol/L”, the “passage of the human blood brain barrier” value ([3]; inferred from Example 4) was “passes the human blood brain barrier” and the “extracellular cerebral glutamate level” value ([3]; patients aged 18 to 39 years, all times to infusion, all patients, up to 108 hours (FIG. 4B)) was less than 10 µmol/L. The “extracellular cerebral glutamate level” value ([3]; patients aged 40 to 60 years, all times to infusion, majority of patients (FIG. 4E)) was less than 10 µmol/L.
